From patent US9750805B2, “Calcium flux agonists and methods therefor” (Nant Holdings IP, LLC, priority 2012, dated 2017)

Columns and labels:
THP-1 cells = experiment: Human IL-8 activity, dose response of calcium flux agonists without added TLR or NOD ligand; assay type: cell-based; details: 24 hours, increasing concentrations, no added TLR or NOD ligand, FIGS. 1A-1C
Text: (§1) The inventors performed several studies to identify the effect of calcium flux agonists on various components of an immune response, and particularly on the effect of calcium flux agonists on IL-8 production and activation of NF-κB signaling. […] The dose response is observed over relatively large windows for ionophores (e.g., A23187 and ionomycin) and over at least two orders of magnitude for SERCA inhibitors (e.g., thapsigargin).
(§2) More specifically, the dose response of ionophores on NF-κB and IL-8 is shown in FIGS. 1A-1B using a monocyte-derived cell line to treatment and A23187 and ionomycin in the absence of externally added TLR or NOD ligands. […] FIG. 1C depicts the dose response to thapsigargin on NF-κB and IL-8.
Human IL-8 activity: A titration of thapsigargin (A.G. Scientific, San Diego Calif.), ionomycin (Sigma-Aldrich, St. Louis Mo.), and the calcium ionophore A23187 (Sigma-Aldrich) was added to a 96-well plate (Thermo Matrix, Waltham Mass.) seeded with 150,000 THP-1 cells (ATCC TIB-202) grown in RPMI 1640 (Cellgro, Herndon VA) supplemented with 10% FBS (Thermo HyClone, Waltham Mass.) and 1% penicillin-streptomycin-fungizone (Thermo HyClone). 24 hours after addition, 25 uL of supernatant was removed and assayed for human IL-8 using the Meso Scale Discovery Human IL-8 Tissue Culture Kit (MSD, Rockville, Md.) per manufacturer's protocol. The results were analyzed using the Meso Scale Discovery SECTOR Imager 2400 and normalized to a titration of human IL-8 supplied by the MSD Kit.

[1] = test system: κB-LUC THP-1 (NF-κB Luciferase Reporter); experiment: NF-κB activation, luciferase reporter, dose response without added ligand; assay type: cell-based, human; details: κB-LUC THP-1, 24 hours, increasing concentrations, no added ligand; FIGS. 1A-1C
Text: as §1, §2
NF-κB activation: A titration of thapsigargin (A.G. Scientific), ionomycin, and the calcium ionophore A23187 was added to a 96-well plate (Thermo Matrix) seeded with 150,000 THP-1 κB-LUC THP-1's (THP-1 cells containing the stable integration of a NF-κB Luciferase Reporter) grown in RPMI 1640 (Cellgro, Herndon VA) supplemented with 10% FBS (Thermo HyClone) and 1% penicillin-streptomycin-fungizone (Thermo HyClone). 24 hours after addition, 25 uL of Bright-Glo Luciferase Assay System (Promega, Madison Wis.) was added to each well and analyzed for luciferase activity using Perkin Elmer TopCount NXT (Perkin Elmer, Waltham Mass.).

[2] = test system: TLR (TLR2, TLR4, TLR5, TLR9) and NOD (NOD1, NOD2) family members; experiment: IL-8 production with TLR and NOD ligands plus suboptimal calcium flux agonist (FIGS. 3A-3E); assay type: cell-based, human; details: suboptimal doses: 20 nM thapsigargin, 316 nM A23187, 1 μM ionomycin, 10 μM cyclopiazonic acid, 31.6 μM DBHQ
Protocol: To investigate if that observation was also true for other pattern recognition receptors, and especially for TLR and NOD receptors and other ligands, the inventors tested numerous TLR and NOD receptors and various ligands.
The doses used in this experiment were 20 nM for thapsigargin, 316 nM for A23187, 1 μM for ionomycin, 10 μM for cyclopiazonic acid, and 31.6 μM for DBHQ.
Thus, a clear pattern of adjuvant activity of calcium flux agonists on the immune response, and especially on IL-8 production and NF-κB signaling is evident where the immune response is associated with a TLR- or NOD-mediated event.

S. aureus [3] = experiment: Mouse model of S. aureus skin wound infection, pre-infection topical treatment; assay type: in vivo, C57BL/6 mice; details: topical 2 mM formulation one day before infection; for bacterial burden at the infection site: day 7, vs vehicle controls; for wound size: days 3, 5 and 7 of infection, vs control treated animals, p<0.01
Protocol: To determine if calcium flux agonists such as the ionophores A23187 and ionomycin or the SERCA pump inhibitor thapsigargin can be used as a pre-treatment of bacterial infection, the inventors treated the shaved dorsal skin of 6-8 week old male C57B1/6 mice with vehicle alone, or formulations containing 2 mM A23187, ionomycin, or thapsigargin. One day later, the inventors superficially infected the dorsal skin of groups of 5 mice with 2×10^6 CFU of S. aureus and evaluated bacterial burden and wound size over the next week.
Topical delivery: A23187 and ionomycin and thapsigargin were reconstituted in dehydrated ethanol (Spectrum Chemicals, Gardena Calif.) to appropriate concentrations for subsequent formulations. In the pre-infection in vivo study, topical formulations consisted of 75% dehydrated ethanol (Spectrum Chemicals), 22% cyclohexane (Sigma-Aldrich), and 3% dimethyl sulfoxide (Sigma-Aldrich). Each topical formulation was delivered by submersing a circular piece of Whatman paper (Whatman, a division of GE Healthcare) with a 1.0 centimeter diameter and applying said circle to the skin of each recipient for 5 minutes.
Preparation of S. aureus for skin inoculation: Briefly, mid-logarithmic phase S. aureus bacteria was washed twice and resuspended in sterile saline (0.9%) at the noted concentrations. Mice: Male mice, 6-8 weeks old, on a C57BL/6 genetic background were used in all experiments (Jackson Laboratories, Bar Harbor, Me.).
Mouse model of S. aureus skin wound infection: To prepare animals for wound infection, the skin of the posterior upper back and neck of mice was shaved using #40 clippers. Next, three parallel 8 mm long full-thickness scalpel cuts (no. 11 blade) were made into the dermis. Resulting wounds were inoculated with 10 μl of S. aureus (2×10^8 CFUs per mL) with a micropipettor. Total lesion size (cm2) measurements were quantified by determining total pixel count from photographed animals using a millimeter ruler as a reference.
Quantification of in vivo S. aureus bacterial burden: To determine in vivo bacterial burden, infected mice were sacrificed on day 7 following infection and lesions were harvested surgically. Harvested tissues were homogenized and bacterial count was determined following plating on appropriate solid growth media.

S. aureus [4] = experiment: Antibiotic sensitivity of S. aureus (OD600 / plating, FIGS. 9A-9C, 10); assay type: cell-based; details: log phase culture, OD600 over time, control kanamycin, 9B
Protocol: To determine the antibiotic sensitivity of S. aureus, cultures were grown overnight in tryptic soy broth (Cellgro). The resulting cultures were used to inoculate new cultures to ensure log phase growth prior to the start of the experiment. Once the bacteria had reached log phase the bacteria was diluted to the appropriate OD600˜0.05 and transferred to a 24-well plate. Compounds of interest were added and plates were incubated in a shaking incubator at 37° C. Aliquots were removed at various time points and their respective OD600 was measured using a BioTek Synergy2 microplate reader (BioTek, Winooski, Vt.). For wells whose turbidity was affected by the addition of the compounds of interest, aliquots were removed and plated on tryptic soy agar (Cellgro) and incubated overnight in a 37° C. incubated and counted the following day. Thus, it should be appreciated that the calcium flux agonists are effective in antimicrobial treatments via an indirect effect, most likely due to the enhanced production of IL-8 and increased NF-κB-driven transcription.

Structure (SMILES) | IL-8 production (THP-1 cells) | activation of NF-κB signaling [1] | effect on IL-8 production with TLR and NOD ligands [2] | bacterial burden at the infection site (S. aureus [3]) | wound size (S. aureus [3]) | direct antibiotic effect against S. aureus (S. aureus [4])
CNc1ccc2oc(C[C@H]3O[C@@]4(CC[C@H]3C)O[C@H]([C@H](C)C(=O)c3ccc[nH]3)[C@H](C)C[C@H]4C)nc2c1C(=O)O [A23187, calcimycin] | significant increases | significant increases | synergistic effect | significantly fewer bacteria | significantly smaller wound sizes | some direct antibiotic effect
C[C@H](CCC(=O)O)C[C@H](C)C[C@H](C)C(=O)/C=C(\O)[C@H](C)C[C@H](C)C/C=C/[C@@H](C)[C@@H](O)[C@@H](C)[C@@H](O)C[C@@H]1CC[C@@](C)([C@H]2CC[C@@](C)([C@@H](C)O)O2)O1 [ionomycin] | significant increases | significant increases | synergistic effect | significantly fewer bacteria | significantly smaller wound sizes | some direct antibiotic effect
C/C=C(/C)C(=O)O[C@H]1C(C)=C2[C@H]([C@@H]1OC(=O)CCCCCCC)[C@@](C)(OC(C)=O)C[C@H](OC(=O)CCC)[C@@]1(O)[C@H]2OC(=O)[C@@]1(C)O [thapsigargin] | significant increases | significant increases | synergistic effect | significantly fewer bacteria | significantly smaller wound sizes | lack of direct antibiotic effect
